Conditions in all cases: at 10 µM
Test [1] concerns T1, Receptor-type tyrosine-protein kinase FLT3 (Homo sapiens), P36888 [R834Q].
T1 sequence (whole entry): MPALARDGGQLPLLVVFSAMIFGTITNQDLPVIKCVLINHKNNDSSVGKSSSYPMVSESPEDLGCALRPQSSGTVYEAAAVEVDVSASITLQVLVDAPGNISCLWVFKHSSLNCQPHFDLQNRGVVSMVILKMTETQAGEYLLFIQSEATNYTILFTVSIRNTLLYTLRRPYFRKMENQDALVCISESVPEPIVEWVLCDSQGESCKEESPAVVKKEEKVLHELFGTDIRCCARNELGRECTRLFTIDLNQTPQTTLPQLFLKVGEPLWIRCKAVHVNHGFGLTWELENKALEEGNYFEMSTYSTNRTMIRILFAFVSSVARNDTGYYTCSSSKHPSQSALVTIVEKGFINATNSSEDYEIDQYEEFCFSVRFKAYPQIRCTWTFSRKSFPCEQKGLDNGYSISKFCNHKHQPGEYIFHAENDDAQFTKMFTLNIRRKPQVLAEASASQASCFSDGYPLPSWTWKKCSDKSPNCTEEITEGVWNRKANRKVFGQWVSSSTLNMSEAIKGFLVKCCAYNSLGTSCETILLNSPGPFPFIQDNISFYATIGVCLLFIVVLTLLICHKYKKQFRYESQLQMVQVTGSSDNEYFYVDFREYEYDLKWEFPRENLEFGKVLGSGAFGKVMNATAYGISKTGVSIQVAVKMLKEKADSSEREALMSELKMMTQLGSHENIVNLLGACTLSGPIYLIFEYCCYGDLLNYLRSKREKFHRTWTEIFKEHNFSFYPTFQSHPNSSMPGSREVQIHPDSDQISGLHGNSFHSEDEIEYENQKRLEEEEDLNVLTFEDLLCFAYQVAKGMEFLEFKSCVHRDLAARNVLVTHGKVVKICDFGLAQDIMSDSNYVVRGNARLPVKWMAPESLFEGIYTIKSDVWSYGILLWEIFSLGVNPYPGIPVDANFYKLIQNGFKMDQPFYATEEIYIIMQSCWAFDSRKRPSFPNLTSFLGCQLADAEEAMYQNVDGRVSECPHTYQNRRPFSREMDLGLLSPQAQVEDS
Put plainly: (§1) Selectivity interaction (KinomeScan (DiscoverX)) EUB0000655a FLT3.

Test [2] deals with Receptor-type tyrosine-protein kinase FLT3 (Homo sapiens) (UniProt P36888). Described as §1.
Test [3] relates to T2, Receptor-type tyrosine-protein kinase FLT3 (Homo sapiens), P36888 [D835Y].
T2 sequence (whole entry): T1 sequence (whole entry) with Q834R, D835Y
The description is as §1.

Test [4] has as its system T3, Receptor-type tyrosine-protein kinase FLT3 (Homo sapiens), P36888 [D835H].
T3 sequence (whole entry): T1 sequence (whole entry) with Q834R, D835H
The description is as §1.

Each structure is given as a SMILES string. Numbering of substitutions follows the chain as printed.

On to `CN(C)CCOc1ccc(-c2nc(-c3ccncc3)c(-c3ccc4c(c3)CC/C4=N\O)[nH]2)cc1`, for which the % of control in test [1] came out at 100%; in test [2], 62%; in test [3], 64%; in test [4] it was 85%.

For the origin of these results see ChEMBL document CHEMBL5465560, “Selectivity Literature for EUbOPEN Chemogenomic Library” (2024).
